From article PMC4303209, “A novel phosphatidylinositol 3-kinase (PI3K) inhibitor directs a potent FOXO-dependent, p53-independent cell cycle arrest phenotype characterized by the differential induction of a subset of FOXO-regulated genes” (Breast Cancer Research : BCR, 2014)

Tested on: MCF-7 breast cancer cells
Assay: Microarray gene expression analysis (Agilent whole human genome 4 x 44K; compound vs DMSO, LIMMA log2 fold change)
Type: cell-based
[1] = MCF-7, 100nM, six hours, 1.5-fold expression change threshold

SMILES: Oc1cccc(-c2nc(N3CCOCC3)c3oc4ncccc4c3n2)c1 [PI-103]
- ESCO1 log2FC (Gene 114799, cell cycle genes): 0.45
- UHRF2 log2FC (Gene 115426, cell cycle genes): 0.51
- KLHDC3 log2FC (Gene 116138, cell cycle genes): 0.0341
- CNTROB log2FC (Gene 116840, cell cycle genes): 0.23
- NEDD1 log2FC (Gene 121441, cell cycle genes): 0.35
- HEXIM2 log2FC (Gene 124790, cell cycle genes): 0.87
- ARL8A log2FC (Gene 127829, cell cycle genes): 0.56
- UHMK1 log2FC (Gene 127933, cell cycle genes): -0.17
- IQGAP3 log2FC (Gene 128239, cell cycle genes): 0.35
- NUP35 log2FC (Gene 129401, cell cycle genes): -0.36
- MITD1 log2FC (Gene 129531, cell cycle genes): 0.71
- NUDT16 log2FC (Gene 131870, cell cycle genes): -0.23
- ZFP42 log2FC (Gene 132625, cell cycle genes): -0.0323
- JMY log2FC (Gene 133746, cell cycle genes): 1.01
- HUS1B log2FC (Gene 135458, cell cycle genes): -0.84
- NEK7 log2FC (Gene 140609, cell cycle genes): 0.11
- CTCFL log2FC (Gene 140690, cell cycle genes): -0.0211
- PSMA8 log2FC (Gene 143471, cell cycle genes): 0.0738
- SESN3 log2FC (Gene 143686, cell cycle genes): 0.12
- PIWIL4 log2FC (Gene 143689, cell cycle genes): 0.27
- E2F7 log2FC (Gene 144455, cell cycle genes): -0.38
- RAD9B log2FC (Gene 144715, cell cycle genes): -0.00292
- KCTD11 log2FC (Gene 147040, cell cycle genes): 0.28
- PYHIN1 log2FC (Gene 149628, cell cycle genes): -0.0139
- PPP1R1C log2FC (Gene 151242, cell cycle genes): 0.09
- SGOL2 log2FC (Gene 151246, cell cycle genes): 0.87
- SGOL1 log2FC (Gene 151648, cell cycle genes): 0.42
- ROPN1B log2FC (Gene 152015, cell cycle genes): 0.0015
- DAB2IP log2FC (Gene 153090, cell cycle genes): 0.03
- CDCA2 log2FC (Gene 157313, cell cycle genes): 0.46
- ESCO2 log2FC (Gene 157570, cell cycle genes): 0.48
- SASS6 log2FC (Gene 163786, cell cycle genes): 0.49
- WBP2NL log2FC (Gene 164684, cell cycle genes): -0.0843
- THAP5 log2FC (Gene 168451, cell cycle genes): 0.10
- FLCN log2FC (Gene 201163, cell cycle genes): 0.78
- STRA13 log2FC (Gene 201254, cell cycle genes): -0.39
- TUBB log2FC (Gene 203068, cell cycle genes): -0.55
- REEP3 log2FC (Gene 221035, cell cycle genes): -0.29
- C6orf89 log2FC (Gene 221477, cell cycle genes): -0.38
- SPDYA log2FC (Gene 245711, cell cycle genes): -0.01
- CDC26 log2FC (Gene 246184, cell cycle genes): -0.67
- ASPM log2FC (Gene 259266, cell cycle genes): 1.14
- SLC39A5 log2FC (Gene 283375, cell cycle genes): 0.05
- GAS2L3 log2FC (Gene 283431, cell cycle genes): 0.53
- NSMCE2 log2FC (Gene 286053, cell cycle genes): 0.84
- LIN9 log2FC (Gene 286826, cell cycle genes): 1.23
- TMPRSS11A log2FC (Gene 339967, cell cycle genes): 0.0013
- NUP43 log2FC (Gene 348995, cell cycle genes): 0.24
- APITD1 log2FC (Gene 378708, cell cycle genes): 0.07
- SETD8 log2FC (Gene 387893, cell cycle genes): -0.04
- PIM3 log2FC (Gene 415116, cell cycle genes): 0.64
- PIWIL3 log2FC (Gene 440822, cell cycle genes): -0.09
- expression of FOXO-dependent apoptosis genes including TNFSF10, BCL211 and FASLG (array) (MCF-7): did not significantly change
- number of differentially expressed genes [1]: more than 2,000
- number of induced (upregulated) genes [1]: 1,293
- number of repressed (downregulated) genes [1]: 886
- CCND1, SPRY2 and MMP9 expression (array) (MCF-7, FOXO target genes): significantly downregulated
- expression of CCNG2, KLHL24, DDIT3, CITED2 and RICTOR (array) (MCF-7, FOXO target genes): significantly upregulated
- MAD1L1 log2FC (cell cycle genes): -0.14
- ACSL5 log2FC (gene ACSL5 (51703), apoptosis genes): 0.058
- log2FC (gene ACTR1A (Gene 10121), cell cycle genes): -0.13
- ADAMTS20 log2FC (gene ADAMTS20 (80070), apoptosis genes): -0.005
- ADIPOQ log2FC (gene ADIPOQ (9370), apoptosis genes): -0.040
- ADRA1A log2FC (gene ADRA1A (148), apoptosis genes): 0.010
- AGTR2 log2FC (gene AGTR2 (186), apoptosis genes): 0.044
- log2FC AKAP8 (gene AKAP8 (Gene 10270), cell cycle genes): -0.20
- ALB log2FC (gene ALB (213), apoptosis genes): -0.044
- ALOX12 log2FC (gene ALOX12 (239), apoptosis genes): -0.144
- ALX3 log2FC (gene ALX3 (257), apoptosis genes): 0.013
- ALX4 log2FC (gene ALX4 (60529), apoptosis genes): -0.036
- log2FC (gene ANAPC13 (Gene 25847), cell cycle genes): -0.30
- ANKRD13C log2FC (gene ANKRD13C (81573), apoptosis genes): -0.007
- APBB1 log2FC (gene APBB1 (322), apoptosis genes): 0.356
- APOH log2FC (gene APOH (350), apoptosis genes): 0.052
- AQP1 log2FC (gene AQP1 (358), apoptosis genes): -0.011
- ARHGAP10 log2FC (gene ARHGAP10 (79658), apoptosis genes): -0.061
- ARHGEF6 log2FC (gene ARHGEF6 (9459), apoptosis genes): -0.152
- ARHGEF16 log2FC (gene ARHGEF16 (27237), apoptosis genes): 0.275
- ARHGEF18 log2FC (gene ARHGEF18 (23370), apoptosis genes): -0.106
- ATOH1 log2FC (gene ATOH1 (474), apoptosis genes): -0.042
- ATPIF1 log2FC (gene ATPIF1 (93974), apoptosis genes): 0.131
- log2FC (gene ATR (Gene 545), cell cycle genes): 0.11
- log2FC (gene BAD (Gene 572), cell cycle genes): 0.53
- BCL2L10 log2FC (gene BCL2L10 (10017), apoptosis genes): -0.066
- BDKRB2 log2FC (gene BDKRB2 (624), apoptosis genes): -0.025
- BIRC2 log2FC (gene BIRC2 (329), apoptosis genes): -0.339
- BIRC8 log2FC (gene BIRC8 (112401), apoptosis genes): -0.038
- BMP2 log2FC (gene BMP2 (650), apoptosis genes): -0.233
- log2FC (gene BMP4 (Gene 652), cell cycle genes): 0.22
- BMP5 log2FC (gene BMP5 (653), apoptosis genes): -0.019
- BOK log2FC (gene BOK (666), apoptosis genes): 0.093
- log2FC (gene BRE (Gene 9577), cell cycle genes): -0.21
- BTK log2FC (gene BTK (695), apoptosis genes): 0.086
- log2FC (gene BUB1B (Gene 701), cell cycle genes): 0.15
- C1QBP log2FC (gene C1QBP (708), apoptosis genes): -0.112
- C3orf38 log2FC (gene C3orf38 (285237), apoptosis genes): -0.159
- log2FC (gene CAMK2B (Gene 816), cell cycle genes): 0.01
- CAPN3 log2FC (gene CAPN3 (825), apoptosis genes): -0.026
- log2FC CAPN3 (gene CAPN3 (Gene 825), cell cycle genes): -0.0259
- CARD9 log2FC (gene CARD9 (64170), apoptosis genes): 0.028
- CARD14 log2FC (gene CARD14 (79092), apoptosis genes): 0.056
- log2FC (gene CASP3 (Gene 836), cell cycle genes): 0.31
- CASP10 log2FC (gene CASP10 (843), apoptosis genes): 0.088
- CASP12 log2FC (gene CASP12 (120329), apoptosis genes): 0.062
- CCK log2FC (gene CCK (885), apoptosis genes): -0.021
- CCL19 log2FC (gene CCL19 (6363), apoptosis genes): 0.205
- log2FC (gene CCNB2 (Gene 9133), cell cycle genes): 0.20
- log2FC (gene CCNH (Gene 902), cell cycle genes): 0.14
- log2FC (gene CCNT2 (Gene 905), cell cycle genes): 0.14
- CD38 log2FC (gene CD38 (952), apoptosis genes): 0.042
- CD40LG log2FC (gene CD40LG (959), apoptosis genes): -0.017
- CD248 log2FC (gene CD248 (57124), apoptosis genes): 0.046
- log2FC (gene CDC73 (Gene 79577), cell cycle genes): 0.33
- CDH1 log2FC (gene CDH1 (999), apoptosis genes): 0.556
- log2FC CDH13 (gene CDH13 (Gene 1012), cell cycle genes): 0.0463
- log2FC CDK2AP1 (gene CDK2AP1 (Gene 8099), cell cycle genes): -0.15
- CDK5 log2FC (gene CDK5 (1020), apoptosis genes): 0.184
- log2FC CDK5RAP1 (gene CDK5RAP1 (Gene 51654), cell cycle genes): 0.0451
- log2FC CDKN2B (gene CDKN2B (Gene 1030), cell cycle genes): -0.0758
- log2FC (gene CENPJ (Gene 55835), cell cycle genes): 0.11
- log2FC (gene CENPK (Gene 64105), cell cycle genes): 0.33
- log2FC (gene CETN3 (Gene 1070), cell cycle genes): 0.33
- log2FC (gene CHEK2 (Gene 11200), cell cycle genes): 0.11
- CHIA log2FC (gene CHIA (27159), apoptosis genes): -0.110
- CIDEA log2FC (gene CIDEA (1149), apoptosis genes): -0.071
- CLC log2FC (gene CLC (1178), apoptosis genes): -0.00153
- CLEC5A log2FC (gene CLEC5A (23601), apoptosis genes): -0.040
- CLSPN log2FC (gene CLSPN (63967), apoptosis genes): -0.114
- CNTFR log2FC (gene CNTFR (1271), apoptosis genes): -0.050
- COL2A1 log2FC (gene COL2A1 (1280), apoptosis genes): -0.00236
- COL4A3 log2FC (gene COL4A3 (1285), apoptosis genes): 0.543
- COMP log2FC (gene COMP (1311), apoptosis genes): -0.113
- log2FC (gene COPS5 (Gene 10987), cell cycle genes): 0.16
- log2FC (gene CRLF3 (Gene 51379), cell cycle genes): 0.14
- log2FC (gene CSNK2B (Gene 1460), cell cycle genes): -0.06
- CST3 log2FC (gene CST3 (1471), apoptosis genes): 0.253
- CTLA4 log2FC (gene CTLA4 (1493), apoptosis genes): 0.009
- CXCR4 log2FC (gene CXCR4 (7852), apoptosis genes): 0.375
- CYR61 log2FC (gene CYR61 (3491), apoptosis genes): -0.258
- DAPK2 log2FC (gene DAPK2 (23604), apoptosis genes): -1.207
- DAXX log2FC (gene DAXX (1616), apoptosis genes): -0.040
- log2FC DAXX (gene DAXX (Gene 1616), cell cycle genes): -0.04
- log2FC (gene DCLRE1B (Gene 64858), cell cycle genes): -0.35
- log2FC (gene DDX11 (Gene 1663), cell cycle genes): -0.27
- DDX47 log2FC (gene DDX47 (51202), apoptosis genes): -0.196
- DEDD2 log2FC (gene DEDD2 (162989), apoptosis genes): 0.214
- DFFB log2FC (gene DFFB (1677), apoptosis genes): -0.041
- log2FC (gene DIAPH2 (Gene 1730), cell cycle genes): 0.38
- log2FC DIRAS3 (gene DIRAS3 (Gene 9077), cell cycle genes): 0.0278
- DMPK log2FC (gene DMPK (1760), apoptosis genes): 0.273
- DNM2 log2FC (gene DNM2 (1785), apoptosis genes): 0.271
- DPF1 log2FC (gene DPF1 (8193), apoptosis genes): -0.250
- log2FC ECD (gene ECD (Gene 11319), cell cycle genes): -0.23
- EGR3 log2FC (gene EGR3 (1960), apoptosis genes): 0.187
- EGR4 log2FC (gene EGR4 (1961), apoptosis genes): 0.222
- ELMO1 log2FC (gene ELMO1 (9844), apoptosis genes): 0.209
- EPB41L3 log2FC (gene EPB41L3 (23136), apoptosis genes): 0.039
